# Tests used:
# Rac1 = Rac1 activation assay (GTP-bound Rac1, PAK pull-down); type: cell-based, human; details: primary T cells, 3 days
# Procedure: (§1) Cell lysates were incubated with 10 μg/ml PAK-1 agarose (Rac assays) or 10 μg/mg Raf RBD agarose (Ras assay) for 60 minutes (Rac assays) or 30 minutes (Ras assays) at 4° C. Agarose beads were collected by centrifugation followed by denaturation, boiling of the samples, and SDS-PAGE analysis.
# [1] = test system: primary CD4+ T lymphocytes; assay: Annexin V/propidium iodide FACS apoptosis of stimulated primary blood CD4+ T lymphocytes; type: cell-based, human; details: anti-CD3, anti-CD28, rIL-2; 4-5 days; at least comparable to 6-MP
# Description: Isolation of primary CD4^+ T lymphocytes and lamina propria cells: Human peripheral blood mononuclear cells (PBMCs) from healthy volunteers (25-42 years of age) and patients with Crohn's disease (31-65 years of age) were isolated using Ficoll-Hypaque gradients. PBMCs were further purified using CD4 monoclonal antibodies attached to immunomagnetic beads according to the manufacturer's protocol, followed by treatment with Detachabead (Dynal; Oslo, Norway). In some cases, CD4^+ T cells were further separated by negative selection techniques using CD45RO or CD45RA monoclonal antibodies (PharMingen; Heidelberg, Germany) and immunomagnetic beads (Dynal). […] Lamina propria mononuclear cells (LPMCs) from patients with IBD were isolated from gut specimens using a short-term (5-minute) digestion protocol with collagenase V, hyaluronidase (Sigma-Aldrich; St. Louis, Mo., USA), and DNase (Roche; Mannheim, Germany), as recently described in detail in Holtmann et al., Eur. J. Immunol. 32:3142-3151 (2002). Briefly, specimens were washed in calcium- and magnesium-free HBSS (HBSS-CMF), cut into 0.5-cm pieces, and incubated twice in HBSS containing EDTA (0.37 mg/ml) and DTT (0.145 mg/ml) at 37° C. for 15 minutes, followed by subsequent digestion for 5 minutes with collagenase V 400 (1 mg/ml), deoxyribonuclease (0.1 mg/ml DNase), and hyaloronidase (0.1 mg/ml) in a shaking incubator at 37° C. The digested tissue was washed twice in RPMI medium containing 10% FCS and centrifuged. The tissue was finally mechanically homogenized (DAKO homogenizer; Hamburg, Germany) for 4 minutes, and cells were filtered through a sterile 40-μm cell strainer (Falcon; San Diego, Calif., USA).
# Such CD28 costimulation is known to prevent apoptosis of primary T cells during T cell receptor (TCR) stimulation through activation of bcl-x, and NF-κB (Noel et al., J. Immunol. 157:636-647 (1996); Radvanyi et al., J. Immunol. 156:1788-1798 (1996); Khoshnan et al., J. Immunol. 165:1743-1754 (2000)). […] In addition, recombinant IL-2 (R&D Systems; Wiesbaden, Germany) was used at a final concentration of 40 U/ml in all experiments. Lamina propria T lymphocytes were stimulated with antibodies to CD2 (4 μg/ml; Immunotech; Marseille, France) and CD28 (1 μg/ml). […] To block CD95L-mediated (FasL-mediated) apoptosis, the NOK-1 antibody (4 μg/ml, PharMingen) was used whose Fab fragments bind to human CD95L (FasL) (Jodo et al., J. Immunol. 165:5487-5494 (2000)). Recombinant human FasL (Alexis Biochemicals; Heidelberg, Germany) was used as a positive control for the NOK-1 antibody (10 μg/ml).
# For FACS analysis, apoptotic cells were detected by staining with annexin V and propidium iodide using the Annexin V FITC Apoptosis Detection Kit I (PharMingen) (Atreya et al., Nat. Med. 6:583-588 (2000)). In brief, T cells were washed twice in PBS, and the pellet was resuspended in annexin V binding buffer (PharMingen) at a concentration of 10^6 cells per milliliter. Annexin V FITC and propidium iodide were added (5 ill of each per 10^5 cells). Samples were gently mixed and incubated for 15 minutes at room temperature in the dark before FACS analysis. To verify the results obtained with the annexin V/propidium iodide staining, analysis of T cells displaying DNA fragmentation was also determined by the Nicoletti technique, as described in (Nicoletti et al., J. Immunol. Methods 139:271-279 (1991)). 10^6 T cells were fixed in 70% ethanol, washed once in HBSS, resuspended in 1 ml of HBSS and 1 ml of phosphate citric acid buffer (0.2 mol/l Na2PO4 and 0.004 mol/l citric acid [pH 7.8]), and incubated at room temperature for 5 minutes. After centrifugation, cells were resuspended in 1 ml of HBSS containing 20 μg/ml propidium iodide and 10 U DNase-free RNase A and incubated at room temperature for 30 minutes. Finally, cells were analyzed on a FACScan flow cytometer. Because of the fragmentation of DNA, apoptotic cells appear as hypodiploid in the DNA histogram.
# Ras = Ras activation assay (GTP-bound Ras, Raf RBD pull-down); type: cell-based, human; details: primary T cells
# Procedure: as §1
# [2] = test system: primary CD4+ T lymphocytes; assay: Mitochondrial membrane potential (JC-1, FACS); details: positive control, 50 μM for 18 hours
# [3] = Stability of thioguanosine phosphates in patient blood samples; type: in vitro ADME, human
# Procedure: Stability of the thioguanosine phosphates in blood samples was examined by storing blood samples from patients for up to 5 days at ambient temperature. RBC were isolated after the specified storage time and frozen at −80° C. until analysis.
# [4] = Interconversion of TGDP and TGTP in spiked blank RBC during sample work-up; type: in vitro ADME, human
# [5] = as above; type: in vitro ADME, human; remark: listed apart in the source
# Procedure: Calibration samples and controls were prepared as described in Rabel et al., supra, with minor modifications. Known amounts of 6-thioguanosine phosphates were added to a mixture of EDTA and 10 μl of DTT to give a final volume of 150 μl. Finally, 100 μl of blank RBC were added and the mixture thoroughly homogenized by vortex mixing. Sample preparation was performed as described above. Calibration curves covered the range of 10 to 50 pmol for TGMP, 10 to 100 pmol for TGDP, and 20 to 400 pmol for TGTP per sample referred to 100 μl of packed blank RBC. Standard curves were obtained by linear regression using peak areas versus concentrations. Because of the partial conversion of TGDP to TGTP and vice versa, both peak areas were summed up. In addition, combinations of 5 to 20 percent of TGDP per sum of TGDP and TGTP were prepared.
# The percentage of conversion of TGDP to TGTP and of TGTP to TGDP was assessed using three sets of TGDP and TGTP calibrators prepared with different RBC.
# Recombinant Ras = assay: Competition of [3H]GTP binding to recombinant Ras; details: 0-500 μM, Raf RGD pull-down, scintillation counting
# Procedure: (§2) Rac and Ras activation assays: The levels of Rac1- and Ras-bound GTP were determined by immunoblot techniques (Upstate Biotech; London, United Kindom). […] Cell lysates were incubated with 10 μg/ml PAK-1 agarose (Rac assays) or 10 μg/mg Raf RBD agarose (Ras assay) for 60 minutes (Rac assays) or 30 minutes (Ras assays) at 4° C. Agarose beads were collected by centrifugation followed by denaturation, boiling of the samples, and SDS-PAGE analysis. Proteins were transferred to nitrocellulose membranes and incubated with 1 μg/ml murine anti-human Rac1 or anti-human Ras (clone Ras10) antibodies overnight at 4° C., followed by detection with goat anti-mouse HRP-conjugated IgG (1:1000 dilution) and the ECL detection system. To analyze the capacity of TGTP to bind to Rac1 or Ras, chemically synthesized TGTP (obtained from Jena Bioscience, Jena, Germany) was used. Recombinant Rac1 or Ras was incubated with radiolabeled GTP ([^3H]GTP, Amersham) and increasing amounts of TGTP (0-500 μM) followed by Rac1 and Ras pull-down through PAK and Raf RGD and analysis of [^3H]GTP-bound Rac1 or Ras by scintillation counting.
# [6] = Stability of thioguanosine phosphates in extracted samples; type: physicochemical
# Description: Stability of thioguanosine phosphates in extracted samples was investigated by storage of extracted samples from 12 patients before oxidation and after oxidation for 14 days and comparing the results with the same samples analyzed immediately after oxidation.
# [7] = Stability during storage of RBC at −80° C.; type: in vitro ADME, human
# Procedure: Stability during storage of RBC at −80° C. was investigated in samples from 18 patients. RBC which were analyzed within one week after isolation were compared with RBC stored for up to 14 weeks.
# Recombinant Rac1 = Recombinant Rac1 (Homo sapiens, UniProt P63000); assay: Competition of [3H]GTP binding to recombinant Rac1; details: 0-500 μM, PAK pull-down, scintillation counting
# Procedure: as §2
# [8] = test system: primary CD4+ T lymphocytes; assay: Blocking of caspase-8 and caspase-9 activity in 6-MP-induced apoptosis; type: cell-based, human; details: 10 μM inhibitor; FACS after 5 days
# Procedure: Blocking of caspase-8 and caspase-9 activity: Primary CD4^+ T lymphocytes from peripheral blood were isolated as described above and stimulated with antibodies to CD3 and CD28 in the presence or absence of indicated amounts of N-acetyl-Leu-Glu-His-Asp-aldehyde (Biomol), a reversible inhibitor of caspase-9, or Ac-Ile-Glu-Thr-Asp-aldehyde (Bachem; Heidelberg, Germany), an inhibitor of caspase-8. Apoptosis was determined by FACS analysis after 5 days of cell culture.
# [9] = more than 10 different blank RBC
# [10] = 5 days of storage of blood at ambient temperature
compound,measurement,setting,value
"Nc1nc2nc[nH]c2c(=S)[nH]1 [6-TG, 6-thioguanine]",CD28 costimulation induced Rac1 activation (GTP-bound Rac1),Rac1,strongly suppressed
same,apoptosis of primary blood CD4+ T lymphocytes,[1],marked apoptosis
same,activation of Ras (GTP-bound Ras),Ras,fail to modulate
"N#CC(C#N)=NNc1ccc(OC(F)(F)F)cc1 [FCCP, carbonylcyanide-4-(trifluoromethoxy)-phenylhydrazone]",ΔΨm in primary CD4+ T cells,[2],marked reduction of ΔΨm
"Nc1nc2c(ncn2[C@@H]2O[C@H](COP(=O)(O)OP(=O)(O)O)[C@@H](O)[C@H]2O)c(=S)[nH]1 [TGDP, 6-thioguanosine diphosphate]",change of amount of TGDP,[3]; up to 5 days of storage of blood at ambient temperature,did not change significantly
same,"Area % of calibrator added, area calibrator × 100/(area TGTP + area TGDP), mean (n = 6)",[4]; 0.9% NaCl,100.0%
same,conversion of TGDP,[4]; 0.9% NaCl,did not show any conversion
same,conversion of TGDP to TGTP,[4]; [9],6-15%
same,"Area % of calibrator added, area calibrator × 100/(area TGTP + area TGDP), mean (n = 6)",[5]; spiked RBC 1,91.6%
same,"Area % of calibrator added, area calibrator × 100/(area TGTP + area TGDP), mean (n = 6)",[5]; spiked RBC 2,92.6%
same,"Area % of calibrator added, area calibrator × 100/(area TGTP + area TGDP), mean (n = 6)",[5]; spiked RBC 3,92.8%
same,conversion of TGDP to TGTP,[5]; spiked samples from three healthy volunteers,7-8%
"Nc1nc2c(ncn2[C@@H]2O[C@H](COP(=O)(O)O)[C@@H](O)[C@H]2O)c(=S)[nH]1 [TGMP, 6-thioguanosine monophosphate]",amount of TGMP as share of total thioguanosine phosphates,[3]; [10],more than 70%
"Nc1nc2c(ncn2[C@@H]2O[C@H](COP(=O)(O)OP(=O)(O)OP(=O)(O)O)[C@@H](O)[C@H]2O)c(=S)[nH]1 [TGTP, 6-thioguanosine triphosphate]",competition with GTP for recombinant Ras / [3H]GTP-bound Ras,Recombinant Ras,did not significantly compete
same,competition with GTP for recombinant Ras / [3H]GTP-bound Ras,Recombinant Ras; listed as 6-Thio-GTP,little effect
same,reduction of the proportion of TGTP,"[6]; non-oxidized extracts kept 14 days at ambient temperature before oxidation, average (range from −5 to −12%)",7%
same,decrease of TGTP proportion,[6]; oxidized samples stored for 14 days (range from −6 to −13%),approximately 8%
same,TGTP recovered,[3]; [10],about 5%
same,change of TGTP on storage of blood samples,[3]; one day at ambient temperature,marked decrease
same,decrease of the proportion of TGTP,"[7]; RBC from 18 patients at −80° C. for 8 to 14 weeks, thawed twice",7.6±7.6%
same,effect of repeated thawing and freezing of RBC samples,[7]; dephosphorylation of TGTP to TGDP,progression in dephosphorylation
same,"Area % of calibrator added, area calibrator × 100/(area TGTP + area TGDP), mean (n = 6)",[4]; 0.9% NaCl,95.6%
same,conversion of TGTP to TGDP,[4]; [9],6-20%
same,TGDP found after sample work-up,[4]; saline samples spiked with TGTP,about 5%
same,"Area % of calibrator added, area calibrator × 100/(area TGTP + area TGDP), mean (n = 6)",[5]; spiked RBC 1,90.3%
same,"Area % of calibrator added, area calibrator × 100/(area TGTP + area TGDP), mean (n = 6)",[5]; spiked RBC 2,93.9%
same,"Area % of calibrator added, area calibrator × 100/(area TGTP + area TGDP), mean (n = 6)",[5]; spiked RBC 3,82.2%
same,conversion of TGTP to TGDP,[5]; subject 1,9.7%
same,conversion of TGTP to TGDP,[5]; subject 2,6.1%
same,conversion of TGTP to TGDP,[5]; third sample,~18%
same,binding to recombinant Rac1 / suppression of [3H]GTP-bound Rac1,Recombinant Rac1,able to bind to recombinant Rac1 under in vitro conditions (although with lower affinity than GTP)
same,binding to recombinant Rac1 / suppression of [3H]GTP-bound Rac1,Recombinant Rac1; listed as 6-Thio-GTP,concentration-dependent suppression
Ac-IETD-aldehyde [acetyl-IETD-CHO],effect on 6-MP-induced apoptosis of primary T lymphocytes,[8],lesser effects
N-acetyl-Leu-Glu-His-Asp-aldehyde (Ac-LEHD-aldehyde; SMILES CC(=O)N[C@@H](CC(C)C)C(=O)N[C@@H](CCC(=O)O)C(=O)N[C@@H](Cc1c[nH]cn1)C(=O)N[C@H](C=O)CC(=O)O) [acetyl-LEHD-CHO],effect on 6-MP-induced apoptosis of primary T lymphocytes,[8],suppressed 6-MP-induced apoptosis
